Data on 21 compounds can be found in PubChem BioAssay (NCI).

Several values for one entry are separate records, joined by “and”; a condition that tells them apart may be missing. Equal values may be shown once.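 These data come from cells grown in 96-well plates and exposed to compound for 48 hours at five concentrations. At the GI50, growth is halved. At the TGI there is no net growth.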 Where only a bound is given, the exact number is not on record here.

Test systems include ACHN renal; HCC-2998 colon; SK-MEL-2 melanoma; OVCAR-8 ovarian; NCI-H23 lung; MALME-3M melanoma; SK-MEL-28 melanoma; NCI/ADR-RES ovarian; HT29 colon; MDA-MB-435.
Common to all, as to assay: DTP human tumour cell line panel, 48 h

With `CC(C)C[S+]1C2=C([O-])CC(C)(C)CC2=Nc2ccccc21` (centres undefined), the total growth inhibition concentration (TGI) in the test with ACHN renal, in the test with HCC-2998 colon, in the test with SK-MEL-2 melanoma, in the test with OVCAR-8 ovarian, in the test with NCI-H23 lung and in the test on MALME-3M melanoma was greater than 100 µM each time. Also, the TGI with SK-MEL-28 melanoma, in the test on NCI/ADR-RES ovarian, in the test with HT29 colon and with MDA-MB-435 was greater than 100 µM each time.

Turning to `COc1ccccc1C1C2=C(COC2=O)Oc2cc3c(cc21)OCO3` (centres undefined), the TGI (commonly the concentration at which net growth stops) with ACHN renal was greater than 100 µM; in the test on HCC-2998 colon it was greater than 37.6 µM; with SK-MEL-2 melanoma, 99.7 µM; with OVCAR-8 ovarian, greater than 56.2 µM; in the test with NCI-H23 lung, greater than 100 µM; in the test on MALME-3M melanoma it was greater than 100 µM. The TGI was greater than 76 µM in the test with SK-MEL-28 melanoma, greater than 39.8 µM in the test on NCI/ADR-RES ovarian, 8.53 µM in the test on HT29 colon and 0.947 µM in the test on MDA-MB-435.

For the compound `COc1ccc(/C=C2/N=C(N/N=C\C(O)C(O)C(O)CO)NC2=O)cc1` (centres undefined), the TGI with ACHN renal, with HCC-2998 colon, with SK-MEL-2 melanoma, in the test with OVCAR-8 ovarian, in the test with NCI-H23 lung and in the test with MALME-3M melanoma was greater than 100 µM throughout. For the same compound, the TGI with SK-MEL-28 melanoma, in the test with NCI/ADR-RES ovarian, in the test with HT29 colon and in the test with MDA-MB-435 was greater than 100 µM throughout. Further, the GI50 (commonly the concentration at which growth is held to half of that of the control) in the test with NCI-H23 lung is > 100 µM and 42.1 µM; in the test with SK-MEL-28 melanoma, > 100 µM and 31.3 µM.

With `Cc1ccc(S(=O)(=O)NC(=O)Nc2c(S(N)(=O)=O)cc(S(N)(=O)=O)c(Cl)c2Cl)cc1`, the TGI in the test on ACHN renal, in the test with HCC-2998 colon, in the test with SK-MEL-2 melanoma, in the test with OVCAR-8 ovarian, in the test with NCI-H23 lung and with MALME-3M melanoma was greater than 100 µM each time. The TGI with SK-MEL-28 melanoma, in the test with NCI/ADR-RES ovarian, in the test on HT29 colon and with MDA-MB-435 was greater than 100 µM in each case.

Turning to `c1ccc(-c2csc3c2-n2cccc2C3N2CCCC2)cc1` (centres undefined), the TGI in the test with ACHN renal, in the test on HCC-2998 colon, in the test with SK-MEL-2 melanoma, in the test on OVCAR-8 ovarian, with NCI-H23 lung and with MALME-3M melanoma was greater than 100 µM each time. Moreover, the TGI with SK-MEL-28 melanoma, with NCI/ADR-RES ovarian, in the test on HT29 colon and in the test with MDA-MB-435 was greater than 100 µM each time.

Take `O=C1CC(c2ccc(Cl)cc2)C2(C(=O)NC(=S)NC2=O)C(c2ccc(Cl)cc2)C1` (centres undefined): the TGI was greater than 100 µM with ACHN renal; 43.3 µM in the test with HCC-2998 colon; 36.1 µM with SK-MEL-2 melanoma; 39 µM in the test on NCI-H23 lung; 52.1 µM in the test with MALME-3M melanoma; 30.6 µM in the test on SK-MEL-28 melanoma. Moreover, the TGI in the test with NCI/ADR-RES ovarian amounted to 52 µM; in the test on HT29 colon, 32.4 µM; in the test on MDA-MB-435, 39.9 µM.

As to `COc1cc(C2CC(C)(N3CCOCC3)Oc3cc4c(cc32)OCO4)cc(OC)c1OC` (centres undefined), the TGI in the test on ACHN renal was greater than 100 µM; in the test with HCC-2998 colon, 2.11 µM; in the test on SK-MEL-2 melanoma, greater than 35.9 µM; in the test on OVCAR-8 ovarian, greater than 100 µM; in the test on NCI-H23 lung it was greater than 100 µM; in the test with MALME-3M melanoma it was greater than 100 µM. Further, the TGI in the test with NCI/ADR-RES ovarian and in the test with MDA-MB-435 was greater than 100 µM throughout.

For `CC(=O)N1C(C(=O)NN2CCOCC2)CSC1c1ccccc1` (centres undefined), the TGI with ACHN renal, in the test on HCC-2998 colon, in the test on SK-MEL-2 melanoma, in the test with OVCAR-8 ovarian, in the test with NCI-H23 lung and with MALME-3M melanoma was greater than 100 µM throughout. The TGI in the test on NCI/ADR-RES ovarian, in the test with HT29 colon and in the test on MDA-MB-435 was greater than 100 µM in each case.

For the compound `CC1=C(C(=O)NNC(=O)Cc2ccccc2)CC(C(=O)NNC(=O)Cc2ccccc2)=C(C)N1`, the TGI in the test with ACHN renal, in the test on HCC-2998 colon, in the test with SK-MEL-2 melanoma, in the test with OVCAR-8 ovarian, in the test with NCI-H23 lung and in the test on SK-MEL-28 melanoma was greater than 100 µM throughout. Moreover, the TGI in the test on NCI/ADR-RES ovarian, in the test on HT29 colon and in the test on MDA-MB-435 was greater than 100 µM each time.

In the case of `C[C@@H]1C[C@H]2OC(=O)[C@@]3(C)CCC[C@@](C)([C@@H]23)[C@@]1(O)CCc1ccoc1`, the TGI in the test with ACHN renal, in the test on HCC-2998 colon, with SK-MEL-2 melanoma, in the test on OVCAR-8 ovarian, in the test on NCI-H23 lung and with SK-MEL-28 melanoma was greater than 100 µM throughout. Further, the TGI in the test on NCI/ADR-RES ovarian, in the test with HT29 colon and in the test with MDA-MB-435 was greater than 100 µM throughout.

Consider `CCOC(=O)Oc1cc2ccsc2c2c1c1ccccc1n2C(=O)OCC`, for which the TGI is 98.1 µM in the test with ACHN renal; greater than 100 µM with SK-MEL-2 melanoma; greater than 100 µM in the test on OVCAR-8 ovarian; greater than 100 µM in the test on NCI-H23 lung; greater than 100 µM in the test on MALME-3M melanoma; greater than 100 µM in the test on SK-MEL-28 melanoma. The TGI in the test with NCI/ADR-RES ovarian, in the test on HT29 colon and in the test on MDA-MB-435 was greater than 100 µM each time.

For the compound `Cc1nc2cn3c(c2c(=O)[nH]1)CCCCC3`, the TGI in the test with ACHN renal, in the test on HCC-2998 colon, in the test with SK-MEL-2 melanoma, in the test with OVCAR-8 ovarian, in the test with NCI-H23 lung and in the test on SK-MEL-28 melanoma was greater than 100 µM throughout. Besides, the TGI in the test with NCI/ADR-RES ovarian, in the test with HT29 colon and with MDA-MB-435 was greater than 100 µM each time.

For the compound `N=c1c2sc3nc4ccccc4n3c2ncn1Cc1ccccc1`, the TGI in the test on ACHN renal, with HCC-2998 colon, in the test on SK-MEL-2 melanoma, in the test on OVCAR-8 ovarian, in the test with NCI-H23 lung and in the test with MALME-3M melanoma was greater than 100 µM in each case. Moreover, the TGI in the test on SK-MEL-28 melanoma, in the test on NCI/ADR-RES ovarian and with MDA-MB-435 was greater than 100 µM in each case.

With `Nc1nc(Cl)cc(NCC2(CO)CCCCC2)n1`, the TGI in the test with ACHN renal, with SK-MEL-2 melanoma, in the test with OVCAR-8 ovarian, with NCI-H23 lung, in the test with MALME-3M melanoma and in the test with SK-MEL-28 melanoma was greater than 100 µM each time. For the same compound, the TGI in the test on NCI/ADR-RES ovarian, with HT29 colon and with MDA-MB-435 was greater than 100 µM each time.

As for `CCOC(=O)NN(C(=O)OCC)c1ccc(N=Nc2ccc(OC)cc2)n1C`, the TGI was 58.2 µM in the test with ACHN renal; 83.6 µM in the test on HCC-2998 colon; 29.4 µM in the test with SK-MEL-2 melanoma; greater than 100 µM in the test on OVCAR-8 ovarian; greater than 100 µM in the test on NCI-H23 lung; 62.7 µM in the test on MALME-3M melanoma. For the same compound, the results for the TGI with NCI/ADR-RES ovarian, with HT29 colon and in the test on MDA-MB-435 were 94.6 µM, 58.3 µM and 56 µM, respectively.

For the compound `Cc1ccc(C2(O)c3ccccc3C(=O)N(C)C2(O)c2ccc(C)cc2)cc1` (centres undefined), the TGI in the test with HCC-2998 colon was greater than 100 µM; with SK-MEL-2 melanoma, greater than 100 µM; with OVCAR-8 ovarian it was 90.9 µM; in the test with NCI-H23 lung, greater than 100 µM; in the test on MALME-3M melanoma it was greater than 100 µM; with SK-MEL-28 melanoma it was greater than 100 µM. Further, the TGI with NCI/ADR-RES ovarian, with HT29 colon and in the test on MDA-MB-435 was greater than 100 µM each time.

`C/C=C/CC(C(=O)OCC)(N(C)C(=O)OC(C)(C)C)S(=O)(=O)c1ccc(C)cc1` (centres undefined): the TGI with ACHN renal, with SK-MEL-2 melanoma, in the test with OVCAR-8 ovarian, in the test on NCI-H23 lung, in the test with MALME-3M melanoma and in the test on SK-MEL-28 melanoma was greater than 100 µM throughout. For the same compound, the TGI in the test with NCI/ADR-RES ovarian was greater than 100 µM; in the test with HT29 colon it was greater than 100 µM; with MDA-MB-435, 83 µM.

For `COc1c(C)c(C/C=C(\C)CC/C=C(\C)CC/C=C(\C)CCC=C(C)C)c(OC)c(OC)c1OC`, the TGI in the test on ACHN renal, with HCC-2998 colon, in the test with SK-MEL-2 melanoma, with OVCAR-8 ovarian, with NCI-H23 lung and in the test on NCI/ADR-RES ovarian was greater than 100 µM throughout. The TGI with HT29 colon and with MDA-MB-435 was greater than 100 µM each time.

On to `O=C(N/N=C(/COc1ccccc1)N=Cc1ccncc1)c1ccncc1`, for which the TGI in the test with ACHN renal, with HCC-2998 colon, with SK-MEL-2 melanoma, with OVCAR-8 ovarian, in the test on NCI-H23 lung and in the test on SK-MEL-28 melanoma was greater than 100 µM each time. In addition, the TGI with NCI/ADR-RES ovarian, in the test with HT29 colon and in the test on MDA-MB-435 was greater than 100 µM in each case.

With `C/C=C1\CC(C(=O)OCC)CCCCCCC1=O` (centres undefined), the TGI with ACHN renal, in the test with SK-MEL-2 melanoma, in the test with OVCAR-8 ovarian, with NCI-H23 lung, in the test on MALME-3M melanoma and in the test on SK-MEL-28 melanoma was greater than 100 µM throughout. In addition, the TGI in the test with NCI/ADR-RES ovarian, in the test on HT29 colon and in the test with MDA-MB-435 was greater than 100 µM each time.

In the case of `Cc1sc2c(c1C)C(=O)c1cccn1-2`, the TGI with ACHN renal, in the test on HCC-2998 colon, in the test on SK-MEL-2 melanoma, with OVCAR-8 ovarian, with MALME-3M melanoma and in the test on SK-MEL-28 melanoma was greater than 100 µM throughout. Also, the TGI in the test on NCI/ADR-RES ovarian, in the test with HT29 colon and with MDA-MB-435 was greater than 100 µM throughout.
